# Reference: patent US5502035A, “N-terminus modified analogs of LHRH” (Tap Holdings Inc., priority 1994, dated 1996)
# Non-standard residues stand in square brackets, D forms with d. Residues, ends and D or L forms follow the SMILES beside them. *: point of attachment. dPhe(4-Cl) = N[C@H](Cc1ccc(Cl)cc1)C(=O)O; d2Nal = N[C@H](Cc1ccc2ccccc2c1)C(=O)O; d(hCit) = NC(=O)NCCCC[C@@H](N)C(=O)O; Lys(iPr) = CC(C)NCCCC[C@H](N)C(=O)O; NMeY = CN[C@@H](Cc1ccc(O)cc1)C(=O)O; d3Pal = N[C@H](Cc1cccnc1)C(=O)O; X1 = O=C([C@@H]1CCCO1)*
# Molecular target: T1, LHRH (Rattus norvegicus, UniProt P30969)
# T1 construct: endogenous in cells; host or cells: rat pituitary cells (own knowledge of the cited Haviv 1989 method)
# T1 sequence (P30969 1-327): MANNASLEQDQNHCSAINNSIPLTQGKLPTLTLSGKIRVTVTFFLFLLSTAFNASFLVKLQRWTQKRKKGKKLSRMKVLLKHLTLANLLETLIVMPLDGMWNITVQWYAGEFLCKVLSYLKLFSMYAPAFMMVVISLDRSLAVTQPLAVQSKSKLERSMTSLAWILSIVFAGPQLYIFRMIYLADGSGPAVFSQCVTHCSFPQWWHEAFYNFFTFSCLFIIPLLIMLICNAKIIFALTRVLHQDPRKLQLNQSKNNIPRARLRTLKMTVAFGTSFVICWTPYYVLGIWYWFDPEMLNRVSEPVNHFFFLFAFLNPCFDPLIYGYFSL
# Experiment: in vitro test for LHRH antagonist potency (pA2)
# Assay type: cell-based
# Conditions: negative logarithm of the antagonist concentration required to shift the response curve produced by the agonist leuprolide to two-fold higher concentration
# Procedure, shortened: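 Antagonism read against the agonist leuprolide on rat LHRH receptor; value is pA2, the −log of antagonist concentration that doubles the agonist concentration needed for the same response.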
row,SMILES,Kb
1,"CC(C)C[C@@H](NC(=O)[C@@H](CCCCNC(=O)c1cccnc1)NC(=O)[C@H](Cc1ccc(O)cc1)N(C)C(=O)[C@H](CO)NC(=O)[C@@H](Cc1cccnc1)NC(=O)[C@@H](Cc1ccc(Cl)cc1)NC(=O)[C@@H](Cc1ccc2ccccc2c1)NC(=O)CNC(=O)[C@@H]1CCCO1)C(=O)N[C@@H](CCCCNC(C)C)C(=O)N1CCC[C@H]1C(=O)N[C@H](C)C(N)=O [Example 87, N (S)-2-Tetrahydrofuroyl-Gly-D2Nal-D4ClPhe-D3Pal-Ser-NMeTyr-DLys(N-epsilon-Nicotinyl) -DLeu-Lys(N-epsilon-Isopropyl)-Pro-DAlaNH2]",0.269 nM
2,"CC(C)C[C@H](NC(=O)[C@@H](CCCCNC(=O)c1cccnc1)NC(=O)[C@H](Cc1ccc(O)cc1)N(C)C(=O)[C@H](CO)NC(=O)[C@@H](Cc1cccnc1)NC(=O)[C@@H](Cc1ccc(Cl)cc1)NC(=O)[C@@H](Cc1ccc2ccccc2c1)NC(=O)CNC(=O)[C@@H]1CCCO1)C(=O)N[C@@H](CCCCNC(C)C)C(=O)N1CCC[C@@H]1C(=O)N[C@H](C)C(N)=O [Example 88, N (S)-2-Tetrahydrofuroyl-Gly-D2Nal-D4ClPhe-D3Pal-Ser-NMeTyr-DLys(N-epsilon-Nicotinyl) -Leu-Lys(N-epsilon-Isopropyl)-DPro-DAlaNH2]",0.158 nM
3,"CC(C)C[C@H](NC(=O)[C@@H](CCCCNC(=O)c1cccnc1)NC(=O)[C@H](Cc1ccc(O)cc1)N(C)C(=O)[C@H](CO)NC(=O)[C@@H](Cc1cccnc1)NC(=O)[C@@H](Cc1ccc(Cl)cc1)NC(=O)[C@@H](Cc1ccc2ccccc2c1)NC(=O)CNC(=O)[C@@H]1CCCO1)C(=O)N[C@H](CCCCNC(C)C)C(=O)N1CCC[C@H]1C(=O)N[C@H](C)C(N)=O [Example 89, N (S)-2-Tetrahydrofuroyl-Gly-D2Nal-D4ClPhe-D3Pal-Ser-NMeTyr-DLys(N-epsilon-Nicotinyl) -Leu-DLys(N-epsilon-Isopropyl)-Pro-DAlaNH2]",0.132 nM
4,"CC(C)C[C@H](NC(=O)[C@@H](CCCCNC(=O)c1cccnc1)NC(=O)[C@@H](Cc1ccc(O)cc1)N(C)C(=O)[C@H](CO)NC(=O)[C@@H](Cc1cccnc1)NC(=O)[C@@H](Cc1ccc(Cl)cc1)NC(=O)[C@@H](Cc1ccc2ccccc2c1)NC(=O)CNC(=O)[C@@H]1CCCO1)C(=O)N[C@@H](CCCCNC(C)C)C(=O)N1CCC[C@H]1C(=O)N[C@H](C)C(N)=O [Example 90, N (S)-2-Tetrahydrofuroyl-Gly-D2Nal-D4ClPhe-D3pal-Ser-DNMeTyr-DLys(N-epsilon-Nicotinyl) -Leu-Lys(N-epsilon-Isopropyl)-pro-DAlaNH2]",0.457 nM
5,"CC(C)C[C@H](NC(=O)[C@@H](CCCCNC(N)=O)NC(=O)[C@H](Cc1ccc(O)cc1)N(C)C(=O)[C@H](CO)NC(=O)[C@@H](Cc1cccnc1)NC(=O)[C@@H](Cc1ccc(Cl)cc1)NC(=O)[C@@H](Cc1ccc2ccccc2c1)NC(=O)CNC(=O)[C@@H]1CCCO1)C(=O)N[C@@H](CCCCNC(C)C)C(=O)N1CCC[C@H]1C(=O)N[C@H](C)C(N)=O [Example 92, N (S)-2-Tetrahydrofuroyl-Gly-D2Nal-D4ClPhe-D3Pal-Ser-NMeTyr-DHcit-Leu-Lys(N- epsilon-Isopropyl) -Pro-DAlaNH2] (X1-G[d2Nal][dPhe(4-Cl)][d3Pal]S[NMeY][d(hCit)]L[Lys(iPr)]P[dA]-NH2)",0.0105 nM
6,"CC(C)C[C@H](NC(=O)[C@@H](CCCCNC(N)=O)NC(=O)[C@H](Cc1ccc(O)cc1)NC(=O)[C@H](CO)NC(=O)[C@@H](Cc1cccnc1)NC(=O)[C@@H](Cc1ccc(Cl)cc1)NC(=O)[C@@H](Cc1ccc2ccccc2c1)NC(=O)CNC(=O)[C@@H]1CCCO1)C(=O)N[C@@H](CCCCNC(C)C)C(=O)N1CCC[C@H]1C(=O)N[C@H](C)C(N)=O [Example 93, N (S)-2-Tetrahydrofuroyl-Gly-D2Nal-D4ClPhe-D3Pal-Ser-Tyr-DHcit-Leu-Lys(N-epsilon-Isopropyl)-Pro-DAlaNH2] (X1-G[d2Nal][dPhe(4-Cl)][d3Pal]SY[d(hCit)]L[Lys(iPr)]P[dA]-NH2)",0.00589 nM
